Measured values taken from patent US7335248B2, “Marine antifouling coating compositions” (Novus International, Inc., priority 2005, dated 2008).
Several values for one entry are separate records, joined by “and”; a condition that tells them apart may be missing. Identical values can stand only once.

Tests used:
barnacle cyprids = test: Barnacle cyprid settlement assay (method of Rittschof et al.), EC50 by probit analysis; format: in vivo, Balanus amphitrite amphitrite
Method: In this case, the defined effect is that the cyprids have not settled and have not attached to the Petri dish. Thus, in the attached data set, the “set” column indicates the total number of cyprid larvae that have settled and attached on the surface of the Petri dish and “non-set” indicates the total number of cyprids that remain swimming in the seawater and have not settled on the surface of the Petri dish.
Briefly, the barnacle adults are cultured in the laboratory and allowed to spawn naturally. The larvae are harvested and grown in artificial culture systems until they reach the cyprid stage at which time the larvae become competent to attach to surfaces. Once attached, the cyprids transform into a pinhead barnacle, thus becoming permanently attached to the surface. Rittschof D, Clare A S, Gerhart D J, Avelin Mary, Bonavetura J (1991) Barnacle in vitro assays for biologically active substances: toxicity and settlement assays using mass cultured Balanus amphitrite amphitrite Darwin. Biofouling (1992) 6:115-122.
(§1) Five replicates (e.g., a-e) for each concentration and the control were collected.

[1] = Solubility in seawater at the levels added in the cyprid assay; format: physicochemical; settings: at the levels added (up to 0.1 mg/ml)
Source text: as §1

barnacles [2] = test: Six month static immersion fouling test of painted PVC panels (open ocean, Tuticorin, India); format: in vivo; settings: for Total barnacle Count / Mean ± SD (barnacle count): 6 months; for Total barnacle Count: both duplicate panels; for Mean ± SD (barnacle count): four panel surfaces
Source text: The reported data were extracted from the raw data as described below, and are shown as total barnacle counts for both duplicate panels of each test formulation. In Table 4, the mean and standard deviation of the data derived from the four panels' surfaces of the duplicate panels for each group. The barnacle counts along the edges were not considered in this evaluation because of the expected uneven coating and inherent tendency of barnacles to first attach to edges. In addition, coatings along the edges can be easily damaged or uneven. Thus, for evaluation purposes only the coated surfaces of the flat areas were considered for this evaluation.
Zinc Omadine was used as the positive control for this series of tests. It is important to note here that fouling is continuous throughout the year at the Tuticorin, India site and the degree of settlement is generally the same for the same coating system.

barnacles [3] = test: Nine month static immersion testing in the Indian Ocean; format: in vivo; settings: 9-month static immersion
Source text: Table 5 summarizes the anti-fouling data from the nine-month immersion test, performed as described above for the six month tests.

[4] = 1e-5 mg/ml, Total of five replicates
[5] = 1e-4 mg/ml, Total of five replicates
[6] = 0.001 mg/ml, Total of five replicates
[7] = 0.01 mg/ml, Total of five replicates
[8] = 0.1 mg/ml, Total of five replicates

CSCCC(O)C(=O)[O-].CSCCC(O)C(=O)[O-].[Cu+2] (stereo not drawn) [HMTBA-Cu, copper 2-hydroxy-4-methylthiobutanoate chelate]
% of set (barnacle cyprids; [4]): 74% | Non set (barnacle cyprids; [4]): 86 | Set (barnacle cyprids; [4]): 241 | % of set (barnacle cyprids; 1e-5 mg/ml, single replicate): 77% and 70% and 74% and 68% and 82% | Non set (barnacle cyprids; 1e-5 mg/ml, single replicate): 14 and 21 and 15 and 25 and 11 | Set (barnacle cyprids; 1e-5 mg/ml, single replicate): 46 and 48 and 42 and 54 and 51 | % of set (barnacle cyprids; [5]): 71% | Non set (barnacle cyprids; [5]): 89 | Set (barnacle cyprids; [5]): 213 | % of set (barnacle cyprids; 1e-4 mg/ml, single replicate): 66% and 79% and 63% and 73% and 72% | Non set (barnacle cyprids; 1e-4 mg/ml, single replicate): 11 and 12 and 29 and 16 and 21 | Set (barnacle cyprids; 1e-4 mg/ml, single replicate): 21 and 46 and 49 and 43 and 54 | % of set (barnacle cyprids; [6]): 53% | Non set (barnacle cyprids; [6]): 155 | Set (barnacle cyprids; [6]): 173 | % of set (barnacle cyprids; 0.001 mg/ml, single replicate): 46% and 56% and 42% and 55% and 65% | Non set (barnacle cyprids; 0.001 mg/ml, single replicate): 27 and 34 (2×) and 42 and 18 | Set (barnacle cyprids; 0.001 mg/ml, single replicate): 23 and 44 and 31 and 41 and 34 | appearance and swimming behavior of cyprids (barnacle cyprids; 0.01 mg/ml and higher (so in the source)): no adverse effects | % of set (barnacle cyprids; [7]): 10% | Non set (barnacle cyprids; [7]): 285 | Set (barnacle cyprids; [7]): 30 | % of set (barnacle cyprids; 0.01 mg/ml, single replicate): 9% and 6% and 8% (2×) and 24% | Non set (barnacle cyprids; 0.01 mg/ml, single replicate): 79 and 66 and 59 and 25 and 56 | Set (barnacle cyprids; 0.01 mg/ml, single replicate): 8 (2×) and 4 and 5 (2×) | toxic effects on the cyprids (barnacle cyprids; 0.1 mg per ml): death of all cyprids | % of set (barnacle cyprids; [8]): 0% | Non set (barnacle cyprids; [8]): 314 | Set (barnacle cyprids; [8]): 0 | % of set (barnacle cyprids; 0.1 mg/ml, single replicate): 0% | Non set (barnacle cyprids; 0.1 mg/ml, single replicate): 69 and 94 and 54 and 59 and 38 | Set (barnacle cyprids; 0.1 mg/ml, single replicate): 0 | EC50 (barnacle cyprids; barnacle cyprids not settled/attached to Petri dish, probit analysis): 1.8 µg/mL | inhibition of barnacle cyprid settlement (barnacle cyprids; in vivo): biologically active as inhibitors of barnacle cyprid settlement | SLOPE (barnacle cyprids; probit analysis, barnacle settlement): 1.567 | solubility in seawater [1]: soluble in seawater at the levels added | Total barnacle Count (barnacles [2]; CUAB coating, 1% (w/w)): 472 | Mean ± SD (barnacle count) (barnacles [2]; CUAB coating, 1% (w/w)): 118.0 ± 158.0 | Total barnacle Count (barnacles [2]; CUAB coating, 3% (w/w)): 170 | Mean ± SD (barnacle count) (barnacles [2]; CUAB coating, 3% (w/w)): 42.5 ± 21.1 | Total barnacle Count (barnacles [2]; CUAB coating, 5% (w/w)): 126 | Mean ± SD (barnacle count) (barnacles [2]; CUAB coating, 5% (w/w)): 31.4 ± 46.4 | Total barnacle Count (barnacles [2]; CUAB coating, 10% (w/w)): 123 | Mean ± SD (barnacle count) (barnacles [2]; CUAB coating, 10% (w/w)): 30.8 ± 12.9 | Total barnacle Count (barnacles [2]; CUSP coating, 1% (w/w)): 4 | Mean ± SD (barnacle count) (barnacles [2]; CUSP coating, 1% (w/w)): 1.0 ± 1.7 | Total barnacle Count (barnacles [2]; CUSP coating, 3% (w/w)): 6 | Mean ± SD (barnacle count) (barnacles [2]; CUSP coating, 3% (w/w)): 1.5 ± 2.6 | Total barnacle Count (barnacles [2]; CUSP coating, 5% (w/w)): 8 | Mean ± SD (barnacle count) (barnacles [2]; CUSP coating, 5% (w/w)): 2.0 ± 2.4 | Total barnacle Count (barnacles [2]; CUSP coating, 10% (w/w)): 9 | Mean ± SD (barnacle count) (barnacles [2]; CUSP coating, 10% (w/w)): 2.3 ± 1.9 | Total barnacle Count (barnacles [2]; MFAB coating, 1% (w/w)): 8 | Mean ± SD (barnacle count) (barnacles [2]; MFAB coating, 1% (w/w)): 2.0 ± 2.4 | Total barnacle Count (barnacles [2]; MFAB coating, 3% (w/w)): 13 | Mean ± SD (barnacle count) (barnacles [2]; MFAB coating, 3% (w/w)): 3.3 ± 4.5 | Total barnacle Count (barnacles [2]; MFAB coating, 5% (w/w)): 11 | Mean ± SD (barnacle count) (barnacles [2]; MFAB coating, 5% (w/w)): 2.8 ± 4.2 | Total barnacle Count (barnacles [2]; MFAB coating, 10% (w/w)): 4 | Mean ± SD (barnacle count) (barnacles [2]; MFAB coating, 10% (w/w)): 1.0 ± 1.7 | efficacy / barnacle settlement (barnacles [2]; copper self-polishing and metal-free ablative coatings, six months of exposure): significant efficacy | LS MEAN BARNACLES (barnacles [3]; CUSP PAINT): 16 | LS MEAN BARNACLES (barnacles [3]; MFAB PAINT): 1.25
